Test system: 885724-159-R-J1-PDC complex spheroid viability
Test: Anticancer human tumor 885724-159-R-J1-PDC patient-derived pancreatic adenocarcinoma cell line growth inhibition [POLQ]
Details: for IC50: curve of first compound; for viability, T/C: stronger effect = lower value
Experimental: Multicellular complex tumor spheroid response to Polymerase (POL) inhibitors (novobiocin, ART-558, RP6685) in combination with a variety of drugs and investigational agents in selected tumor cell lines
The POL inhibitors (novobiocin, ART-558, and RP6685) were evaluated both individually and in combination with standard of care and investigational anticancer small molecules within a complex spheroid model of solid tumors. . Complex spheroids include a stromal component modeled by human endothelial cells (HUVEC) and fibroblasts modeled by human mesenchymal stem cells (MSCs). The concentration ranges selected for each drug and investigational agent were based upon clinically achievable concentrations if the clinical Cmax of the agent was known.
Compounds. The drugs and investigational agents: novobiocin (NSC847541), ART-558 (NSC835418), RP-6685 (NSC848927), peposertib (NSC802822), ceralasertib (NSC780249), elimusertib (NSC800525), camonsertib (NSC841442), AZD-1390 (NSC803789), olaparib (NSC753686), talazoparib (NSC767125), rucaparib (NSC756644), sotorasib (NSC818433), MRTX-1133 (NSC836407), SN-38 (NSC673596), topotecan (NSC609699), epotoside (NSC141540), doxorubicin (NSC123127), gemcitabine (NSC613327), 5-fluorouracil (NSC19893), paclitaxel (NSC125973), vemurafenib (NSC761431), MSA-2 (NSC828583), SN-011 (NSC837082), adavosertib (NSC754352), prexasertib (NSC758257), carboplatin (NSC241240) and oxaliplatin (NSC266046), were obtained from the National Cancer Institute (NCI) Developmental Therapeutics Program Chemical Repository (21). The FDA-approved anticancer drug set is available from the Developmental Therapeutics Program at https://dtp.cancer.gov/organization/dscb/obtaining/. […] The stock solutions were prepared in dimethyl sulfoxide (DMSO, Sigma-Aldrich, St. Louis, MO, cat. D2650), except for the platinum compounds which were prepared in saline (Quality Biological, Gaithersburg, MD, cat. 114-055-101), at 800-fold the tested concentration and stored at -70 degrees C prior to their use. All drugs and investigational agents were tested over a range starting from a high concentration at or near the clinical Cmax and decreasing in half-log increments. If the clinical Cmax for an agent had not been determined, the highest concentration tested was 10 microM, except for SN-38, which was tested at a high concentration of 1 microM.
Cell Culture. All cells were maintained in an incubator at 37 degrees C and 5% CO2 with 95% humidity. The PDC lines were cultured according to standard operating procedures established by the NCI PDMR (https://pdmr.cancer.gov). Table 3 of the manuscript, lists the cell lines along with the number of the three cell types plated to form the mct-spheroids and media for tumor cell growth. After thawing, all PDC lines, except 997537-175-T-J1-PDC and 415267-285-R-J2-PDC, were cultured in Matrigel-coated flasks prepared with a working solution of 1X Ham's F-12 nutrient mix, without supplementation (Thermo Fisher Scientific, cat. 11765054), 100 U/mL penicillin-streptomycin (Thermo Fisher Scientific, cat. 15140122), and 2.5% Matrigel (Corning Inc., Corning, NY, cat. 354248) for the first three passages. The two PDC lines 997537-175-T-J1-PDC and 415267-285-R-J2-PDC were cultured on uncoated flasks. The 857933-349-R-J2-PDC line was cultured in 6C/Colon 1B media containing advanced DMEM/F-12 (Thermo Fisher Scientific, cat. 12634028), 10 mM HEPES (Thermo Fisher Scientific, cat. 15630080), 1X GlutaMAX supplement (Thermo Fisher Scientific, cat. 35050061), 0.1 mg/mL primocin (InvivoGen, San Diego, CA, cat. ant-pm-2), 10% defined fetal bovine serum, heat inactivated (HyClone Laboratories Inc., Logan, UT, cat. SH30070.03HI), 50% L-WRN conditioned media (ATCC, cat. CRL-3276), 1.25 mM N-Acetyl-L-cysteine (Sigma-Aldrich, cat. A9165), 10 mM nicotinamide (Sigma-Aldrich, cat. N0636), 1X B-27 supplement (Thermo Fisher Scientific, cat. 17504044), 1X N-2 supplement (Thermo Fisher Scientific, cat. […]

[1] = second compound 0.0316 µM, first compound 0.0316 µM
[2] = second compound 0.0316 µM, first compound 0.1 µM
[3] = second compound 0.1 µM, first compound 0.0316 µM
[4] = second compound 0.1 µM, first compound 0.1 µM
[5] = second compound 0.316 µM, first compound 0.0316 µM
[6] = second compound 0.316 µM, first compound 0.1 µM
[7] = second compound 1 µM, first compound 0.0316 µM
[8] = second compound 1 µM, first compound 0.1 µM
[9] = second compound 3.16 µM, first compound 0.0316 µM
[10] = second compound 3.16 µM, first compound 0.1 µM
[11] = second compound 10 µM, first compound 0.0316 µM
[12] = second compound 10 µM, first compound 0.1 µM
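Also: spheroids exposed to compounds for 7 days.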

Cn1ncnc1[C@H]1c2n[nH]c(=O)c3cc(F)cc(c23)N[C@@H]1c1ccc(F)cc1 + Cc1cccc(N(C)C(=O)C2C(O)CCN2c2nc(C)cc(C(F)(F)F)c2C#N)c1
IC50 (second compound 0.0316 µM): > 0.1 µM | IC50 (second compound 0.1 µM): > 0.1 µM | IC50 (second compound 0.316 µM): > 0.1 µM | IC50 (second compound 1 µM): > 0.1 µM | IC50 (second compound 3.16 µM): > 0.1 µM | IC50 (second compound 10 µM): > 0.1 µM | viability, T/C (second compound 0.0316 µM, first compound 0.000316 µM): 97.2% | viability, T/C (second compound 0.0316 µM, first compound 0.001 µM): 86.9% | viability, T/C (second compound 0.0316 µM, first compound 0.00316 µM): 96.1% | viability, T/C (second compound 0.0316 µM, first compound 0.01 µM): 86.3% | viability, T/C [1]: 93.6% | viability, T/C [2]: 87.5% | viability, T/C (second compound 0.1 µM, first compound 0.000316 µM): 96.9% | viability, T/C (second compound 0.1 µM, first compound 0.001 µM): 95% | viability, T/C (second compound 0.1 µM, first compound 0.00316 µM): 92.9% | viability, T/C (second compound 0.1 µM, first compound 0.01 µM): 91.7% | viability, T/C [3]: 99.9% | viability, T/C [4]: 87.8% | viability, T/C (second compound 0.316 µM, first compound 0.000316 µM): 112% | viability, T/C (second compound 0.316 µM, first compound 0.001 µM): 97.1% | viability, T/C (second compound 0.316 µM, first compound 0.00316 µM): 93.2% | viability, T/C (second compound 0.316 µM, first compound 0.01 µM): 93.5% | viability, T/C [5]: 100% | viability, T/C [6]: 86.4% | viability, T/C (second compound 1 µM, first compound 0.000316 µM): 98.5% | viability, T/C (second compound 1 µM, first compound 0.001 µM): 101% | viability, T/C (second compound 1 µM, first compound 0.00316 µM): 89.2% | viability, T/C (second compound 1 µM, first compound 0.01 µM): 84.5% | viability, T/C [7]: 92.9% | viability, T/C [8]: 88.5% | viability, T/C (second compound 3.16 µM, first compound 0.000316 µM): 98.3% | viability, T/C (second compound 3.16 µM, first compound 0.001 µM): 101% | viability, T/C (second compound 3.16 µM, first compound 0.00316 µM): 86.4% | viability, T/C (second compound 3.16 µM, first compound 0.01 µM): 89.6% | viability, T/C [9]: 88.6% | viability, T/C [10]: 84.7% | viability, T/C (second compound 10 µM, first compound 0.000316 µM): 93.7% | viability, T/C (second compound 10 µM, first compound 0.001 µM): 95.9% | viability, T/C (second compound 10 µM, first compound 0.00316 µM): 98.1% | viability, T/C (second compound 10 µM, first compound 0.01 µM): 94.4% | viability, T/C [11]: 94.1% | viability, T/C [12]: 80%

O=C(Nc1ccc(O)c(NS(=O)(=O)c2ccc(F)cc2)c1)c1ccc(-c2ccccc2)cc1 + Cc1cccc(N(C)C(=O)C2C(O)CCN2c2nc(C)cc(C(F)(F)F)c2C#N)c1
IC50 (second compound 0.0316 µM): > 10 µM | IC50 (second compound 0.1 µM): > 10 µM | IC50 (second compound 0.316 µM): > 10 µM | IC50 (second compound 1 µM): > 10 µM | IC50 (second compound 3.16 µM): > 10 µM | IC50 (second compound 10 µM): > 10 µM | viability, T/C [1]: 110% | viability, T/C [2]: 92.4% | viability, T/C (second compound 0.0316 µM, first compound 0.316 µM): 101% | viability, T/C (second compound 0.0316 µM, first compound 1 µM): 102% | viability, T/C (second compound 0.0316 µM, first compound 3.16 µM): 106% | viability, T/C (second compound 0.0316 µM, first compound 10 µM): 102% | viability, T/C [3]: 96.6% | viability, T/C [4]: 103% | viability, T/C (second compound 0.1 µM, first compound 0.316 µM): 94.2% | viability, T/C (second compound 0.1 µM, first compound 1 µM): 107% | viability, T/C (second compound 0.1 µM, first compound 3.16 µM): 111% | viability, T/C (second compound 0.1 µM, first compound 10 µM): 117% | viability, T/C [5]: 102% | viability, T/C [6]: 92.3% | viability, T/C (second compound 0.316 µM, first compound 0.316 µM): 98.3% | viability, T/C (second compound 0.316 µM, first compound 1 µM): 101% | viability, T/C (second compound 0.316 µM, first compound 3.16 µM): 118% | viability, T/C (second compound 0.316 µM, first compound 10 µM): 108% | viability, T/C [7]: 110% | viability, T/C [8]: 91.2% | viability, T/C (second compound 1 µM, first compound 0.316 µM): 107% | viability, T/C (second compound 1 µM, first compound 1 µM): 106% | viability, T/C (second compound 1 µM, first compound 3.16 µM): 112% | viability, T/C (second compound 1 µM, first compound 10 µM): 111% | viability, T/C [9]: 107% | viability, T/C [10]: 90.1% | viability, T/C (second compound 3.16 µM, first compound 0.316 µM): 105% | viability, T/C (second compound 3.16 µM, first compound 1 µM): 104% | viability, T/C (second compound 3.16 µM, first compound 3.16 µM): 115% | viability, T/C (second compound 3.16 µM, first compound 10 µM): 107% | viability, T/C [11]: 105% | viability, T/C [12]: 102% | viability, T/C (second compound 10 µM, first compound 0.316 µM): 104% | viability, T/C (second compound 10 µM, first compound 1 µM): 108% | viability, T/C (second compound 10 µM, first compound 3.16 µM): 123% | viability, T/C (second compound 10 µM, first compound 10 µM): 101%
